Tests used:
RpalOR1 [1] = biological target: T1, RpalOR1 (Rhynchophorus palmarum, UniProt A0A8A5RCH6); assay: single-sensillum recording, Drosophila at1 OSNs; assay type: cell-based; settings: 500 ms, agonist
T1 sequence (A0A8A5RCH6 1-411): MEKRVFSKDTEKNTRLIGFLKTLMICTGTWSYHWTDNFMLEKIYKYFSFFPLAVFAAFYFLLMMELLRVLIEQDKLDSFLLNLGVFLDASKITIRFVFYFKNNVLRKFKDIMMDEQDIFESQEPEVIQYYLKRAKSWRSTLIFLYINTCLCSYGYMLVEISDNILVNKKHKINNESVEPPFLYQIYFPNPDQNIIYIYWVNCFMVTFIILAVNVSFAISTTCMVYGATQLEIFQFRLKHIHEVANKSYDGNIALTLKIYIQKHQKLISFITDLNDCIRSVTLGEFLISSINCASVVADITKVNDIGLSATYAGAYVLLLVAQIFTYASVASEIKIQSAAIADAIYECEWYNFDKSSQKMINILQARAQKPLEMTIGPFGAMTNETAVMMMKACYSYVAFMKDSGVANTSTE
T1 sequence (Q9VNB5 1-486 partner): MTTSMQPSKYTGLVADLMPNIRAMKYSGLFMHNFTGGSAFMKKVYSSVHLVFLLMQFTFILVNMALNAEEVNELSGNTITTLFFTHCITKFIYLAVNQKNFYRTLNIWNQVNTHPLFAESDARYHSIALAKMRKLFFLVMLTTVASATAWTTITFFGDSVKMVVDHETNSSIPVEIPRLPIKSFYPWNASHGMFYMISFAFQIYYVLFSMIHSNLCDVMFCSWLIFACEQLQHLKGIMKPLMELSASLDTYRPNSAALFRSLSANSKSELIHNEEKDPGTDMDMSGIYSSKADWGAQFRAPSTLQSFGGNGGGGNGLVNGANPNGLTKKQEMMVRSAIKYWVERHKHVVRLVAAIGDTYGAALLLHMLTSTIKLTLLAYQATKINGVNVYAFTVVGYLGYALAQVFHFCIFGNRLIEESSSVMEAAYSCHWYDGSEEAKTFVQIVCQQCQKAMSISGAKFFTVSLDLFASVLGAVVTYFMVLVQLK

RpalOR1 [2] = biological target: T1, RpalOR1; assay: single-sensillum recording, Drosophila at1 OSNs; assay type: cell-based; settings: 1 µg in hexane on stimulus cartridge, 500 ms; agonist
RferOR1 = biological target: T2, RferOR1 (Rhynchophorus ferrugineus, UniProt A0A4P8W8S8); assay: single-sensillum recording, Drosophila at1 OSNs; assay type: cell-based; settings: […] µg in paraffin oil on stimulus cartridge, […] ms; agonist
T2 sequence (A0A4P8W8S8 1-411): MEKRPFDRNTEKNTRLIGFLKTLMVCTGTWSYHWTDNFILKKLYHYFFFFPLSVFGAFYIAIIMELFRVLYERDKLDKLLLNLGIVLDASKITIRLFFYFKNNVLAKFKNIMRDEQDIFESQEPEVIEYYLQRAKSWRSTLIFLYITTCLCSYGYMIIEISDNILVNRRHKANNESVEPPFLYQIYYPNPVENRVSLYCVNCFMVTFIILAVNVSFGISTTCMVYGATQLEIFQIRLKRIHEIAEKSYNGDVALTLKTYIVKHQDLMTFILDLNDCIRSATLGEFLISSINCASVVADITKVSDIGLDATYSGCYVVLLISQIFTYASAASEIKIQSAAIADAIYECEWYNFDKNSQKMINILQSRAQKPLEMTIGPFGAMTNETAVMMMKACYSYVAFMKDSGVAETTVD
T2 sequence (Q9VNB5 1-486 partner): T1 sequence (Q9VNB5 1-486 partner)

RpalOR1 [3] = biological target: T1, RpalOR1; settings: 100 µg in paraffin oil on stimulus cartridge, 500 ms; agonist
[4] = 1 µg in hexane on stimulus cartridge
[5] = 100 µg in paraffin oil on stimulus cartridge

## CCCC(=O)C(C)CCC (stereo not drawn) [5-methyloctan-4-one]
RpalOR1 [1]; [4]
  single-sensillum recording, Drosophila at1 OSNs: We also found a response to 5-methyloctan-4-one

## C/C=C/C(O)CCCC (stereo not drawn) [(E)‑oct-2-en-4-ol]
RpalOR1 [1]; [4]
  single-sensillum recording, Drosophila at1 OSNs: The two last agonists were (E)‑oct-2-en-4-ol and nonan-5-one

## C/C=C/C(O)C(C)CC (stereo not drawn) [(E)−5-methylhept-2-en-4-ol]
RpalOR1 [2]
  average response at 1 μg: 27 action potentials per second

## CCCCOC(=O)CCC [butyl butyrate]
RferOR1
  single-sensillum recording, Drosophila at1 OSNs: significantly activated by the same palm tree esters: propyl butyrate, butyl butyrate
RpalOR1 [1]; [5]
  single-sensillum recording, Drosophila at1 OSNs: significantly activated by the same palm tree esters: propyl butyrate, butyl butyrate

## CCCCCC(=O)OCC [ethyl hexanoate]
RferOR1
  single-sensillum recording, Drosophila at1 OSNs: propyl butyrate, butyl butyrate, ethyl valerate and ethyl hexanoate
RpalOR1 [1]; [5]
  single-sensillum recording, Drosophila at1 OSNs: propyl butyrate, butyl butyrate, ethyl valerate and ethyl hexanoate

## CCCCC(=O)OCC [ethyl valerate]
RpalOR1 [1]; [5]
  single-sensillum recording, Drosophila at1 OSNs: propyl butyrate, butyl butyrate, ethyl valerate and ethyl hexanoate

## CCCCC(O)C(C)CCC (stereo not drawn) [ferrugineol, 4-methylnonan-5-ol]
RpalOR1 [2]
  average response at 1 μg: 112 action potentials per second

## CCCCC(=O)C(C)CCC (stereo not drawn) [ferrugineone, 4-methylnonan-5-one]
RpalOR1 [2]
  average response at 1 μg: 103 action potentials per second

## CCCCC(O)CCCC [nonan-5-ol]
RpalOR1 [1]; [4]
  single-sensillum recording, Drosophila at1 OSNs: RpalOR1 was activated by phoenicol as well as nonan-5-ol

## CCCCC(=O)CCCC [nonan-5-one]
RpalOR1 [1]; [4]
  single-sensillum recording, Drosophila at1 OSNs: The two last agonists were (E)‑oct-2-en-4-ol and nonan-5-one

## CCCCC(O)C(C)CC (stereo not drawn) [phoenicol, 3-methyloctan-4-ol]
RpalOR1 [1]; [4]
  single-sensillum recording, Drosophila at1 OSNs: RpalOR1 was activated by phoenicol as well as nonan-5-ol

## CCCOC(=O)CCC [propyl butyrate]
RpalOR1 [3]
  average response at 100 μg: 63 action potentials per second
RferOR1
  single-sensillum recording, Drosophila at1 OSNs: both RpalOR1 and RferOR1 were significantly activated by the same palm tree esters: propyl butyrate

Source: article PMC11345504 (Current Research in Insect Science, 2024)
